Where “and” joins values, the source holds several entries; their conditions need not be identical. Identical values can stand only once. Like-named read-outs stand apart in the source and are kept apart here.
Assays:
AP = test system: AP; parameters: method as in Holinka et al.; details: ref Holinka et al.; cited from earlier work
uterus = details: cited from earlier work
[1] = test system: AP activity in Ishikawa uterine cells; test: Alkaline phosphatase (AP) assay, agonist mode (absence of E2); format: cell-based, human; details: for Induction of AP activity (% E2): Maximum AP activity observed relative to positive control, 500 pM E2, means of n independent experiments ±s.d.; for Maximal AP activity in agonist mode relative to E2 control: absence of E2, normalized to 500 pM E2, representative experiment (Fig. 2a)
Experimental: (§1) Our primary screen to distinguish pure antiestrogens from SERMs was induction of alkaline phosphatase (AP) activity in Ishikawa uterine cells. […] The reference SERM used in our screen was endoxifen (N-desmethyl-4-hydroxytamoxifen), the most abundant bioactive metabolite of tamoxifen.
(§2) Shown is a representative figure analyzed and presented as above.
(§3) At least 4 h later cells were treated with antiestrogens and media was diluted to 2.5% stripped FBS. Cells were incubated for 3 days, media removed and plates frozen at −80 °C. Thawed plates were incubated with a chromogenic substrate of AP, p-nitrophenyl phosphate (ThermoFisher Scientific, #36721), for 40–60 min at 40 °C, and absorbance read at 405 nm on the Varioskan Lux multimodal plate reader (ThermoFisher Scientific, #VLBL00D0).

ERα = biological target: T1, ERα (Homo sapiens, UniProt P03372); test: ERα protein levels by immunoblotting; format: cell-based; details: MCF-7 cells, 100 nM ligand, 24 h, means of n experiments ±s.d.
T1 construct: endogenous in cells
T1 sequence (P03372 1-595): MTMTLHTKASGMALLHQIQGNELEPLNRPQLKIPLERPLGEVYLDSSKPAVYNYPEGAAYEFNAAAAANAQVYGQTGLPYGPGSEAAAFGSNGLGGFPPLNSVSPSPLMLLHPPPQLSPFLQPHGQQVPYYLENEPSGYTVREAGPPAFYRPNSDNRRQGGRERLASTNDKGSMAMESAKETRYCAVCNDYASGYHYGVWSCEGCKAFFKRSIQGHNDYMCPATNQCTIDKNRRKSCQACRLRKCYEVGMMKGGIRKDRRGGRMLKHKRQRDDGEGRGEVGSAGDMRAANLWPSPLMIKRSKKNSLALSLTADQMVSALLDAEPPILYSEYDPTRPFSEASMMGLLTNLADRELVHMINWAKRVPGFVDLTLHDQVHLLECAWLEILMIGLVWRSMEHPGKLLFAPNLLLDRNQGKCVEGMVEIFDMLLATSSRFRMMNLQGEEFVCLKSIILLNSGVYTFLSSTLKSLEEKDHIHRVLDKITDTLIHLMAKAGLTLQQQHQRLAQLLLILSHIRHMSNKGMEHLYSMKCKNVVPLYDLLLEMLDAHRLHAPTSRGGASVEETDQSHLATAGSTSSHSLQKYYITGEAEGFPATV
Experimental: However, it is conceivable that under some clinical contexts SERD activity may still be a desirable feature by reducing the number of functional receptors in tumors.
Imaging was performed on FluorChem Imager by Alpha Innotech. […] An uncropped image of the immunoblot is shown in Supplementary Fig. 5.

[2] = test system: estrogen responsive reporter gene, ERE-tk109-Luc, in MCF-7 cells; test: Inhibition of E2-stimulated transcription of ERE-tk109-Luc reporter gene in MCF-7 cells; format: cell-based; details: Homo sapiens
MCF-7 cells = test: Inhibition of E2-stimulated proliferation of MCF-7 cells; format: cell-based; details: Homo sapiens
[3] = biological target: T2, Estrogen Receptor α LBD (ERα) (Homo sapiens, UniProt P03372); test: Competitive ligand binding assay with [3H]-E2; details: for IC50: 10 nM [3H]-E2 tracer, 2 nM biotinylated ERα LBD, representative experiment
T2 construct: 2 nM biotinylated Estrogen Receptor α LBD (ERα) was incubated; biotin (biotinylated)
T2 sequence (P03372 311-547 limits assumed): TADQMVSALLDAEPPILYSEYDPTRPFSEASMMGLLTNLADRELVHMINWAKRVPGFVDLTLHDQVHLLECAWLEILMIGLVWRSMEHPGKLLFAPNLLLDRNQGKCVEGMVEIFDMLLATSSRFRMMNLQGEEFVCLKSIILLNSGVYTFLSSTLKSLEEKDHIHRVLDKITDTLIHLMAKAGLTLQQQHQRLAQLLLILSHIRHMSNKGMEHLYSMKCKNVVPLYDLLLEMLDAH
Experimental: Experimental data points are mean + /− s.e.m. of triplicate samples in a representative experiment. […] Experimental data points are mean + /− s.d. of triplicate samples in a representative experiment
Triplicate reactions were vortexed and 100 μL was added in triplicate to a 96-well streptavidin flashplate (Perkin Elmer #SMP103001PK), which incubated overnight at 4 °C prior to reading.

CAMA-1 cells = test: Inhibition of E2-stimulated proliferation of CAMA-1 cells; format: cell-based; details: Homo sapiens, CAMA-1, 192 h; read-out: CAMA-1 IC50 proliferation (Fig. 3c)
Experimental: Shown is a representative figure analyzed and presented as above. d, Western blot of destabilization of ERα protein by OP-1074.
Proliferation was measured using CyQuant fluorescent DNA-binding dye kit (ThermoFisher Scientific, #C7026) using 1:200 GR dye and reading fluorescence at 485 nm excitation and 538 nm emission on the Varioskan Lux multimodal plate reader.

[4] = test system: E2-stimulated AP activity in Ishikawa cells; test: Alkaline phosphatase (AP) assay, antagonist mode (presence of 500 pM E2); format: cell-based, human; details: for Antagonism of E2-stimulated AP activity: 500 pM E2
Experimental: as §1, §2, §3

[5] = test system: uterus of ovariectomized mice; parameters: method as in PMID 15968821; details: cited from earlier work
MCF7/HER2/neu tumors = test system: MCF7/HER2/neu tumors
Experimental: MCF7/HER2/neu cells were grown in culture and implanted into 6–7 week athymic ovariectomized female nu/nu mice (Taconic Biosciences). To stimulate tumor growth, 0.18 mg estradiol 90 day release pellets (Innovative Research) were implanted along with cells. […] Tumor volume and bodyweight were measured twice weekly. At end of the study animals were euthanized, tumors resected and snap frozen in liquid nitrogen, and uteri were resected, weighed, and fixed in 10% formalin.

[6] = MCF7, 24 h, read-out: IC50 transcription
[7] = MCF7, read-out: IC50 proliferation
[8] = MCF7, 22 h, read-out: IC50 inhibition of E2-stimulated transcription (Fig. 3a)
[9] = MCF7, 168 h, read-out: MCF-7 IC50 proliferation (Fig. 3b)
[10] = number of 10 tumors at end of study, OP-1074 100 mg/kg oral twice daily, fulvestrant 100 mg/kg subcutaneous daily

Row | SMILES | Relative ERα protein levels (% vehicle) (ERα) | IC50 [2, 6] | IC50 (MCF-7 cells; [7]) | IC50 [2, 8] | IC50 (MCF-7 cells; [9]) | Induction of AP activity (% E2) [1] | Maximal AP activity in agonist mode relative to E2 control ([1]; 3 days) | IC50 (CAMA-1 cells) | further results
1 | CC/C(=C(\c1ccc(O)cc1)c1ccc(OCCN(C)C)cc1)c1ccccc1 [4-OHT, (Z)-4-trans-hydroxytamoxifen] | – | – | – | – | – | – | – | – | Activation of AP (AP): 1.3 fold
2 | CC/C(=C(/c1ccc(/C=C/C(=O)O)cc1)c1ccc2[nH]ncc2c1)c1ccc(F)cc1Cl [GDC-0810] | – | – | – | – | – | – | – | – | Agonist effects in the uterus (uterus): mild to moderate agonist effects in the uterus
3 | CCNCCc1ccc(CN(CC)c2cc(OC)ccc2[C@@H]2CCc3cc(O)ccc3C2)cc1 [RAD1901] | – | – | – | – | – | – | – | – | Agonist effects in the uterus (uterus): mild to moderate agonist effects in the uterus
4 | CC/C(=C(\c1ccc(O)cc1)c1ccc(OCCNC)cc1)c1ccccc1 [endoxifen, (Z)-4-hydroxy-N-desmethyltamoxifen, reference compound] | 139% ± 34 (n = 20) % vehicle | 6.3 ± 1.3 nM | 13 ± 2.2 nM | – | – | 73% ± 10 (n = 8) % E2 | 82% | – | AP activity remaining in antagonist mode ([4]; Ishikawa cells, 500 pM E2, 1 µM drug): 58%
5 | C[C@]12CC[C@@H]3c4ccc(O)cc4C[C@@H](CCCCCCCCC[S+]([O-])CCCC(F)(F)C(F)(F)F)[C@H]3[C@@H]1CC[C@@H]2O (some centres unmarked) [fulvestrant, reference compound] | – | 2 ± 0.2 nM | 2.5 ± 0.3 nM | 6.3 nM | 2.2 nM | 0.05% ± 2.7 (n = 58) % E2 | – | 1.9 nM | AP activity in agonist mode ([1]; 3 days, absence of E2, all doses tested): lacked any AP activity; Tumors shrunk / growth inhibited by >50% (MCF7/HER2/neu tumors; [10]): 5/10; Tumors shrunk >80% (MCF7/HER2/neu tumors; [10]): 1/10; IC50 ([4]; Homo sapiens, Ishikawa, 72 h, read-out: IC50 inhibition of E2-stimulated AP activity): 3 nM; Antagonism of E2-stimulated AP activity ([4]; Ishikawa cells): completely inhibited E2-stimulated AP activity
6 | CC/C(=C(\c1ccccc1)c1ccc(OCCN(C)C)cc1)c1ccccc1 [tamoxifen, reference compound] | – | – | – | – | – | – | – | – | Tumors shrunk below the initial tumor size (MCF7/HER2/neu tumors; end of study, 100 mg/kg tamoxifen daily by oral gavage): half

The next lines start with results.

Row | Relative ERα protein levels (% vehicle) (ERα) | IC50 [2, 6] | IC50 (MCF-7 cells; [7]) | IC50 [2, 8] | IC50 (MCF-7 cells; [9]) | SMILES | Induction of AP activity (% E2) [1] | Maximal AP activity in agonist mode relative to E2 control ([1]; 3 days) | IC50 (CAMA-1 cells) | further results
7 | 119% ± 13 (n = 6) % vehicle | 0.5 ± 0.1 nM | 6.4 ± 1 nM | – | – | CC1=C(c2ccc(O)cc2)C(c2ccc(OCCN3CCC[C@H]3C)cc2)Oc2cc(O)ccc21 (some centres unmarked) [OP-1039] | 49% ± 18 (n = 8) % E2 | – | – | –
8 | 319% ± 100 (n = 5) % vehicle | 1.3 ± 0.4 nM | 5.5 ± 1.4 nM | – | – | CC1=C(c2ccc(O)cc2)C(c2ccc(OCCN3CCC[C@@H]3C)cc2)Oc2cc(O)ccc21 (some centres unmarked) [OP-1047] | 136% ± 15 (n = 4) % E2 | – | – | –
9 | 123% ± 22 (n = 4) % vehicle | 5.6 ± 2.1 nM | 6 ± 1.1 nM | 4 nM | 6.9 nM | CC1=C(c2ccc(O)cc2)[C@H](c2ccc(OCCN3CC[C@H](C)C3)cc2)Oc2cc(O)ccc21 [OP-1154] | 40% ± 6.5 (n = 3) % E2 | 39% | 8.1 nM | IC50 [3]: 14.3 ± 0.06 nM; Binding affinity relative to OP-1074 and OP-1156 (fold lower) ([3]; [3H]-E2 competitive binding): approximately 2 fold; Antagonism of E2-stimulated AP activity ([4]; Ishikawa cells): did not completely antagonize E2-stimulated AP activity
10 | 152% ± 31 (n = 4) % vehicle | 5.9 ± 2.1 nM | 5.2 ± 1.3 nM | 4 nM | 6.3 nM | CC1=C(c2ccc(O)cc2)[C@H](c2ccc(OCCN3CCCC3)cc2)Oc2cc(O)ccc21 [OP-1156] | 40% ± 7.8 (n = 3) % E2 | 40% | 4.2 nM | IC50 [3]: 6 nM and 6.13 nM; Uterine wet weight [5]: increased uterine wet weight

Reference: publication PMC6006285, “Specific stereochemistry of OP-1074 disrupts estrogen receptor alpha helix 12 and confers pure antiestrogenic activity” (Nature Communications, 2018)
